These results are taken from patent US20090047235A1, “Paratransgenesis to Control Termites or Other Social Insects” (priority 2007, published 2009).

The subject of series [1] is termite protozoa (Pseudotrichonympha grassii Koidzumi, Holomastigotoides hartmanni Koidzumi, Spirotrichonympha leidyi Koidzumi). The experiment in a line: In vitro lytic peptide test on anaerobic cultures of termite hindgut protozoa. Format: cell-based. Particulars: 50 μM peptide, after 5-10 minutes. The text has this: (§1) Three protozoal species (Pseudotrichonympha grassii Koidzumi, Holomastigotoides hartmanni Koidzumi, and Spirotrichonympha leidyi Koidzumi) from the termite hindgut were maintained for 24 hrs in vitro, a sufficient time to allow testing of lytic peptides. The protozoa were removed from the termite hindgut in an anaerobic glove-box, and placed in sterile, sparged (Hydrogen 2.5%, Carbon dioxide 5% and Nitrogen 92.5%) Trager U (pH 7.0) saline solution. Positive controls for testing lytic peptides were established and validated with these cultures. The efficacy of the lytic peptides was then routinely tested prior to experiments to confirm both aerobic activity (using the “standard” T. pyriformis) and anaerobic activity (using cultures of the termite protozoa). One hundred percent mortality was observed after 5-10 minutes when any of these protozoa were treated with any one of three lytic peptides (hecate, melittin, or cecropin) at a 50 μM concentration, confirming the toxicity of the lytic peptides towards termite protozoa in an anaerobic environment that mimicked termite hindgut conditions.
(§2) The efficacy of each lytic peptide solution was confirmed using T. pyriformis and termite protozoa cultures in vitro before each microinjection test. A 5 ml overnight culture of T. pyriformis was washed three times in sterile 10 mM Tris-HCl (pH 7.4), and suspended in 1 ml 10 mM Tris-HCl (pH 7.4). Subsequently, 100 μl aliquots were placed in a Sigmacote™-treated, 96-well microplate. The lytic peptides were dissolved in 10 mM Tris-HCl. A range of concentrations (25-500 μM) of lytic peptide was added to each of several wells, and the remaining wells were treated with 10 mM Tris-HCl (pH 7.4) as control. After confirming aerobic activity of the lytic peptide concentrations against T. pyriformis, lytic peptide efficacy was then tested against anaerobic cultures of termite protozoa. Sparged lytic peptide was added anaerobically to the sparged cultures of termite protozoa, and mortality was observed.

In another series the test system is Tetrahymena pyriformis. The series is described as follows: In vitro lytic peptide test on aerobic Tetrahymena pyriformis cultures. Format: cell-based. Particulars: 50 μM peptide, after 5-10 minutes. The procedure: The initial positive control for testing the efficacy of lytic peptide solutions was the aerobic, laboratory standard protozoan Tetrahymena pyriformis, cultures of which were purchased from Carolina Biological (#13-1182A) and maintained in proteose peptone media. Before each experiment, lytic peptide activity was tested using T. pyriformis.
as §1
as §2, with “After confirming aerobic activity of the lytic peptide concentrations against T. pyriformis, lytic peptide efficacy was then tested against anaerobic cultures of termite protozoa. Sparged lytic peptide was added anaerobically to the sparged cultures of termite protozoa, and mortality was observed.” left out

Series [2] relates to protozoa in the hindgut of termite workers. The experiment in a line: In vivo microinjection of lytic peptides into the termite hindgut. The settings on record: for relative effectiveness against protozoa in vivo among peptides tested: hindgut microinjection, 50 μM; for time to defaunation of injected termite workers: ~0.5 μl of 50 μM lytic peptide injected into hindgut. The text has this:
A termite microinjection protocol was used to confirm directly the effect of lytic peptide in the hindgut. We first optimized the protocol by finding preferred conditions for each of the following: the time to immobilize a termite by cooling on ice; suitable methods for anchoring the termite in place for microinjection; and the maximum volume that could consistently be injected into the hindgut without causing direct trauma. Microinjection directly to the termite hindgut avoided the possibility of peptide degradation by non-specific protease activity in the foregut or midgut.
Termite workers were immobilized by chilling on ice for 1.5 min, and were then mechanically aspirated, head-first, into a modified pipette tip that had been trimmed to expose the terminus of the termite. This “termite holder” was attached to a micromanipulator, and the insect was advanced to insert a Sigmacote™-treated, fine glass needle into the anus of the termite. Lytic peptide or control solution was injected under the control of a high-speed, electronic foot pedal with pulse length control, to ensure that a constant volume was reproducibly injected into each insect. Approximately 0.5 μl of 10 mM Tris-HCl (pH 7.4) (control) or 0.5 μl of 50 μM lytic peptide dissolved in 10 mM Tris-HCl (pH 7.4) was injected into the hindgut of each termite. A second control group of non-injected termite workers was also included. The termites were housed in 3 cm Petri dishes, in which damp filter paper was provided. At 24, 48, and 72 hrs guts from randomly selected termites from each treatment were extirpated, and observations were made of the presence and motility of protozoa.

For series [3], the system named is termite workers (gut protozoa). The experiment in a line: Defaunation of termites by feeding Metronidazole-treated filter paper. Format: in vivo. Particulars: for time to death of defaunated termites: Metronidazole feeding. The procedure:
Using an aspirator, six groups of 100 termite workers each were collected and placed in Petri dishes containing damp filter paper. In addition, 10 soldiers were added to each group to enhance the overall survivorship rate. […] The remaining three groups of termites were transferred to Petri dishes containing paper that had been dampened with autoclaved tap water. All six replicates were transferred to an incubator and mortality was recorded every 24 hours. […] Once defaunation had been confirmed, all six groups were thereafter provided only with filter paper dampened with sterile tap water. Mortality was recorded each day. Statistically significant differences in mortality between treatment groups and control groups were established using 95% confidence intervals.

Series [4] has as its system termite workers (gut protozoa). The experiment in a line: Termite feeding experiments with yeast expressing lytic peptide. Format: in vivo. The settings on record: summary statement. How it is done:
Lytic peptide-expressing and control Kluyveromyces lactis strains were used in termite feeding experiments. Aliquots of 2 ml YPGal in Sigmacote™-treated 15 ml Falcon tubes were inoculated with yeast, which were then grown for 3 days, with shaking at 225 rpm at 30° C. The strains grown were K. lactis engineered with the expression vector (control), K. lactis expressing the control protein MBP, and K. lactis expressing a lytic peptide gene (either hecate or hecate-GFP fusion). The cultures were washed three times with sterile, deionized water, and re-suspended in 500 μl sterile 10 mM galactose. Galactose was used because the coding sequences were under the control of the LAC4 promoter, a strong promoter whose activity is induced by galactose. Secretion of active lytic peptide by the transformed K. lactis into the growth media was verified using in vitro cultures of the protozoa T. pyriformis.
Termites were collected in New Orleans, La., and were maintained on damp cardboard in plastic buckets at room temperature. Only termites that had been held in the laboratory less than 4 weeks were used in the feeding experiments. […]
Termite mortality was recorded every three days. The number of viable termites was also recorded, as cannibalism in laboratory colonies has sometimes been observed. […]

Series [5] relates to termite symbiotic protozoa. Particulars: preliminary data, poster 2002; cited from earlier work.

Regarding `CC[C@H](C)[C@H](NC(=O)CN)C(=O)NCC(=O)N[C@@H](C)C(=O)N[C@H](C(=O)N[C@@H](CC(C)C)C(=O)N[C@@H](CCCCN)C(=O)N[C@H](C(=O)N[C@@H](CC(C)C)C(=O)N[C@H](C(=O)N[C@H](C(=O)NCC(=O)N[C@@H](CC(C)C)C(=O)N1CCC[C@H]1C(=O)N[C@@H](C)C(=O)N[C@@H](CC(C)C)C(=O)N[C@H](C(=O)N[C@@H](CO)C(=O)N[C@@H](Cc1c[nH]c2ccccc12)C(=O)N[C@H](C(=O)N[C@@H](CCCCN)C(=O)N[C@@H](CCCNC(=N)N)C(=O)N[C@@H](CCCCN)C(=O)N[C@@H](CCCNC(=N)N)C(=O)N[C@@H](CCC(N)=O)C(=O)N[C@@H](CCC(N)=O)C(N)=O)[C@@H](C)CC)[C@@H](C)CC)[C@@H](C)O)[C@@H](C)O)C(C)C)C(C)C` [melittin], the “mortality of termite protozoa” value in series [1] was “One hundred”. Also, the “mortality of T. pyriformis” value in the series with Tetrahymena pyriformis is “One hundred”. For the same compound, in series [2], the “relative effectiveness against protozoa in vivo among peptides tested” value is “more effective against protozoa in vivo” and the “time to defaunation of injected termite workers” value was found to be 72 h.

In the case of `Cc1ncc([N+](=O)[O-])n1CCO` [Metronidazole], the “mortality of defaunated termites versus controls” value in series [3] (95% confidence intervals did not overlap) is recorded as “significantly higher mortality”. In addition, the “time to death of defaunated termites” value was “six” in series [3]; “six and about six” in series [3] (listed as metronidazole). Also, the “time to defaunation of termite workers” value in series [3] (filter paper treated with 400 μL Metronidazole (2 g/L)) is listed as at most 7 days.

Consider cecropin, for which the “mortality of termite protozoa” value in series [1] is recorded as “One hundred”. Besides, in the series on Tetrahymena pyriformis, the “mortality of T. pyriformis” value is recorded as “One hundred”.

Regarding “falalkalkk alkklkkalk kal (FALALKALKKALKKLKKALKKA; This is the designed peptide known as hecate.)”, in series [1], the “mortality of termite protozoa” value is recorded as “One hundred”. For the same compound, in the series on Tetrahymena pyriformis, the “mortality of T. pyriformis” value is on record as “One hundred”. For the same compound, in series [2], the “relative effectiveness against protozoa in vivo among peptides tested” value is listed as “more effective against protozoa in vivo” and the “time to defaunation of injected termite workers” value came to 72 h. Moreover, in series [4], the “effect on protozoa in the termite gut” value is recorded as “kill all (or at least most) species of protozoa in the termite gut” and the “time to death of the insect without protozoa” value was “about six”. In addition, the “killing of termite symbiotic protozoa in vitro” value in series [5] is given as “would kill termite symbiotic protozoa”.
